Test results taken from article PMC6625639 (Biochemical pharmacology, 2018).

Assays:
SULT2A1 = target: T1, SULT2A1 (Homo sapiens, UniProt Q06520); type: biochemical
T1 sequence (Q06520 1-285): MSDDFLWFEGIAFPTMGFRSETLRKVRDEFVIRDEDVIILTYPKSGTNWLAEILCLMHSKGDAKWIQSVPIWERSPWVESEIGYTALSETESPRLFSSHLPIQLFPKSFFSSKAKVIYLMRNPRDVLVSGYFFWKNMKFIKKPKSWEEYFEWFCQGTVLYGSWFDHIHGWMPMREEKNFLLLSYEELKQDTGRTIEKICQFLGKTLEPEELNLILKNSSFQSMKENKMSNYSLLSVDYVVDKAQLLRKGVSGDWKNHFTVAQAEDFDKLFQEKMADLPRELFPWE

SULT1A1 = SULT1A1 (Homo sapiens, UniProt P50225); type: biochemical
SULT1A1, sequence (P50225 whole entry): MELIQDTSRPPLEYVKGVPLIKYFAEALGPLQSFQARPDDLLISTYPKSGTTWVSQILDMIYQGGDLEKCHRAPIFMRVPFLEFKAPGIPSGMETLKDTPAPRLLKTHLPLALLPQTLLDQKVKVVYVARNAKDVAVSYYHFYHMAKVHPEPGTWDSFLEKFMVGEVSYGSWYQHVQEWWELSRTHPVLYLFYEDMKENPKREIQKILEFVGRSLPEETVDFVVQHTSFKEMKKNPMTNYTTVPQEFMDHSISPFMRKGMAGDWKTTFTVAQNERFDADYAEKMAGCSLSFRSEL

Ki (SULT2A1): 14 µM | Ki (SULT1A1): 0.027 µM
SMILES: Cc1cccc(Nc2ccccc2C(=O)O)c1C [Mef, Mefenamic acid]
